≈ marks a conversion by molar mass, not a printed value. Calls of active or inactive are those of the source. The rule behind the calls is not given here. Where a SMILES comes first, the peptide text is derived from it. Bridges are numbered along the chain shown (N, C = ends). [ ]: non-standard residue; d: D form. The star is where a group is joined. X1 = CC[C@H](C)CCCCC(=O)*; Dab = NCC[C@H](N)C(=O)O
Experiments:
Escherichia coli [1] = experiment: Antibacterial activity against Escherichia coli ATCC 25922 after 18 hrs by CLSI based broth microdilution method; assay type: functional
Escherichia coli [2] = experiment: Antibacterial activity against Escherichia coli ATCC 43837 after 18 hrs by CLSI based broth microdilution method; assay type: functional
Klebsiella pneumoniae = experiment: Antibacterial activity against Klebsiella pneumoniae ATCC 700603 after 18 hrs by CLSI based broth microdilution method; assay type: functional
Pseudomonas aeruginosa = experiment: Antibacterial activity against Pseudomonas aeruginosa ATCC 27853 after 18 hrs by CLSI based broth microdilution method; assay type: functional
Staphylococcus aureus [3] = experiment: Antibacterial activity against Staphylococcus aureus ATCC 25923 after 18 hrs by CLSI based broth microdilution method; assay type: functional; conditions: ATCC 25923, 18 h
Staphylococcus aureus [4] = experiment: Antibacterial activity against methicillin-resistant Staphylococcus aureus 936 after 18 hrs by CLSI based broth microdilution method; assay type: functional; conditions: Staphylococcus aureus, 936, 18 h
Bacillus subtilis = experiment: Antibacterial activity against Bacillus subtilis ATCC 23857 after 18 hrs by CLSI based broth microdilution method; assay type: functional; conditions: ATCC 23857, 18 h
Escherichia coli [5] = experiment: Antibacterial activity against Escherichia coli ATCC 25922 after 18 hrs in presence of NaCl by CLSI based broth microdilution method (reference value: 4 microM); assay type: functional; conditions: ATCC 25922, 18 h
Escherichia coli [6] = experiment: Antibacterial activity against Escherichia coli ATCC 25922 after 18 hrs in presence of KCl by CLSI based broth microdilution method (reference value: 4 microM); assay type: functional; conditions: ATCC 25922, 18 h
Escherichia coli [7] = experiment: Antibacterial activity against Escherichia coli ATCC 25922 after 18 hrs in presence of MgCl2 by CLSI based broth microdilution method (reference value: 4 microM); assay type: functional; conditions: ATCC 25922, 18 h
Escherichia coli [8] = experiment: Antibacterial activity against Escherichia coli ATCC 25922 after 18 hrs in presence of FeCl3 by CLSI based broth microdilution method (reference value: 4 microM); assay type: functional; conditions: ATCC 25922, 18 h
Staphylococcus aureus [9] = experiment: Antibacterial activity against Staphylococcus aureus ATCC 25923 after 18 hrs in presence of NaCl by CLSI based broth microdilution method (reference value: 16 microM); assay type: functional; conditions: ATCC 25923, 18 h
Staphylococcus aureus [10] = experiment: Antibacterial activity against Staphylococcus aureus ATCC 25923 after 18 hrs in presence of KCl by CLSI based broth microdilution method (reference value: 16 microM); assay type: functional; conditions: ATCC 25923, 18 h
Staphylococcus aureus [11] = experiment: Antibacterial activity against Staphylococcus aureus ATCC 25923 after 18 hrs in presence of MgCl2 by CLSI based broth microdilution method (reference value: 16 microM); assay type: functional; conditions: ATCC 25923, 18 h
Staphylococcus aureus [12] = experiment: Antibacterial activity against Staphylococcus aureus ATCC 25923 after 18 hrs in presence of FeCl3 by CLSI based broth microdilution method (reference value: 16 microM); assay type: functional; conditions: ATCC 25923, 18 h
Escherichia coli [13] = experiment: Disruption of membrane integrity in Escherichia coli ATCC 25922 assessed as membrane damage by measuring PI fluorescence at 4 times of MIC incubated for 1 hr by PI dye based flow cytometric analysis (reference value: 1.35%); assay type: functional
Escherichia coli [14] = experiment: Disruption of membrane integrity in Escherichia coli ATCC 25922 assessed as membrane damage by measuring PI fluorescence at 2 times of MIC incubated for 1 hr by PI dye based flow cytometric analysis (reference value: 1.35%); assay type: functional
Escherichia coli [15] = experiment: Induction of membrane disruption in Escherichia coli ATCC 25922 assessed as rough membrane surface at 4 times of MIC after 2 hrs by SEM analysis; assay type: functional, organism-based
Escherichia coli [16] = experiment: Induction of membrane disruption in Escherichia coli ATCC 25922 assessed as corrugated membrane surface at 4 times of MIC after 2 hrs by SEM analysis; assay type: functional, organism-based
Escherichia coli [17] = experiment: Induction of membrane disruption in Escherichia coli ATCC 25922 assessed as degeneration in membrane at 4 times of MIC after 2 hrs by SEM analysis; assay type: functional, organism-based
DNA = experiment: Binding affinity to Escherichia coli ATCC 25922 genomic DNA at 4 x MIC after 30 mins by agarose gel electrophoresis; assay type: nucleic-acid assay
Escherichia coli [18] = experiment: Ratio of antibacterial activity against Escherichia coli ATCC 25922 in presence of NaCl to antibacterial activity against Escherichia coli ATCC 25922; assay type: functional
Escherichia coli [19] = experiment: Ratio of antibacterial activity against Escherichia coli ATCC 25922 in presence of KCl to antibacterial activity against Escherichia coli ATCC 25922; assay type: functional
Escherichia coli [20] = experiment: Ratio of antibacterial activity against Escherichia coli ATCC 25922 in presence of MgCl2 to antibacterial activity against Escherichia coli ATCC 25922; assay type: functional
Escherichia coli [21] = experiment: Ratio of antibacterial activity against Escherichia coli ATCC 25922 in presence of FeCl3 to antibacterial activity against Escherichia coli ATCC 25922; assay type: functional
Staphylococcus aureus [22] = experiment: Ratio of antibacterial activity against Staphylococcus aureus ATCC 25923 in presence of NaCl to antibacterial activity against Staphylococcus aureus ATCC 25923; assay type: functional
Staphylococcus aureus [23] = experiment: Ratio of antibacterial activity against Staphylococcus aureus ATCC 25923 in presence of KCl to antibacterial activity against Staphylococcus aureus ATCC 25923; assay type: functional
Staphylococcus aureus [24] = experiment: Ratio of antibacterial activity against Staphylococcus aureus ATCC 25923 in presence of MgCl2 to antibacterial activity against Staphylococcus aureus ATCC 25923; assay type: functional
Staphylococcus aureus [25] = experiment: Ratio of antibacterial activity against Staphylococcus aureus ATCC 25923 in presence of FeCl3 to antibacterial activity against Staphylococcus aureus ATCC 25923; assay type: functional
Staphylococcus aureus [26] = experiment: Antibiofilm activity against Staphylococcus aureus ATCC 25923 at 1 to 2 times of MIC after 24 hrs by crystal violet staining based assay; assay type: functional, organism-based
Escherichia coli [27] = experiment: Induction of membrane disruption in Escherichia coli ATCC 25922 assessed as fracture in membrane at 4 times of MIC after 2 hrs by SEM analysis; assay type: functional, organism-based
Escherichia coli [28] = experiment: Induction of ROS generation in Escherichia coli ATCC 25922; assay type: functional, organism-based
[29] = Klebsiella pneumoniae, 700603, 18 h

CC[C@H](C)[C@H](NC(=O)[C@H](CCCNC(=N)N)NC(=O)[C@@H](CCCCN)NC(=O)[C@H](CC(C)C)NC(=O)[C@H](CC(C)C)NC(=O)CN)C(=O)N[C@H](CCCCN)C(=O)N[C@H](C(=O)N[C@@H](CC(C)C)C(=O)N[C@@H](CC(C)C)C(N)=O)[C@@H](C)O (H-GLL[dK]RI[dK]TLL-NH2)
MIC (Escherichia coli [1]; ATCC 25922, 18 h): > 128 µM
MIC (Escherichia coli [2]; ATCC 43837, 18 h): > 128 µM
MIC (Klebsiella pneumoniae; [29]): > 128 µM
MIC (Pseudomonas aeruginosa; ATCC 27853, 18 h): 64 µM (≈ 73.8 µg/mL)
MIC (Staphylococcus aureus [3]): > 128 µM
MIC (Staphylococcus aureus [4]): > 128 µM
MIC (Bacillus subtilis): 64 µM (≈ 73.8 µg/mL)

CC1(C)S[C@@H]2[C@H](NC(=O)Cc3ccccc3)C(=O)N2[C@H]1C(=O)O [PENICILLIN G]
MIC (Escherichia coli [1]; ATCC 25922, 18 h): 64 µM (≈ 21.4 µg/mL)
MIC (Escherichia coli [2]; ATCC 43837, 18 h): 8 µM (≈ 2.68 µg/mL)
MIC (Klebsiella pneumoniae; [29]): > 128 µM
MIC (Pseudomonas aeruginosa; ATCC 27853, 18 h): > 128 µM
MIC (Staphylococcus aureus [3]): < 1 µM
MIC (Staphylococcus aureus [4]): 32 µM (≈ 10.7 µg/mL)
MIC (Bacillus subtilis): < 1 µM

CCCCCC(=O)NCC(=O)N[C@@H](CC(C)C)C(=O)N[C@@H](CC(C)C)C(=O)N[C@H](CCCCN)C(=O)N[C@@H](CCCNC(=N)N)C(=O)N[C@H](C(=O)N[C@H](CCCCN)C(=O)N[C@H](C(=O)N[C@@H](CC(C)C)C(=O)N[C@@H](CC(C)C)C(N)=O)[C@@H](C)O)[C@@H](C)CC
MIC (Escherichia coli [1]; ATCC 25922, 18 h): 128 µM (≈ 160 µg/mL)
MIC (Escherichia coli [2]; ATCC 43837, 18 h): > 128 µM
MIC (Klebsiella pneumoniae; [29]): > 128 µM
MIC (Pseudomonas aeruginosa; ATCC 27853, 18 h): 32 µM (≈ 40.1 µg/mL)
MIC (Staphylococcus aureus [3]): > 128 µM
MIC (Staphylococcus aureus [4]): > 128 µM
MIC (Bacillus subtilis): 16 µM (≈ 20 µg/mL)

CC[C@H](C)CCCCC(=O)N[C@@H](CCN)C(=O)N[C@H](C(=O)N[C@@H](CCN)C(=O)N[C@H]1CCNC(=O)[C@H]([C@@H](C)O)NC(=O)[C@H](CCN)NC(=O)[C@H](CCN)NC(=O)[C@H](CC(C)C)NC(=O)[C@@H](Cc2ccccc2)NC(=O)[C@H](CCN)NC1=O)[C@@H](C)O (X1-[Dab]T[Dab][Dab][Dab][dF]L[Dab][Dab]T; lactam 4-C)
MIC (Escherichia coli [1]; ATCC 25922, 18 h): 4 µM (≈ 4.81 µg/mL)
MIC (Escherichia coli [2]; ATCC 43837, 18 h): 2 µM (≈ 2.41 µg/mL)
MIC (Klebsiella pneumoniae; [29]): 8 µM (≈ 9.63 µg/mL)
MIC (Pseudomonas aeruginosa; ATCC 27853, 18 h): 2 µM (≈ 2.41 µg/mL)
MIC (Staphylococcus aureus [3]): 16 µM (≈ 19.3 µg/mL)
MIC (Staphylococcus aureus [4]): 16 µM (≈ 19.3 µg/mL)
MIC (Bacillus subtilis): 8 µM (≈ 9.63 µg/mL)
MIC (Escherichia coli [5]): 16 µM
MIC (Escherichia coli [6]): 16 µM
MIC (Escherichia coli [7]): 8 µM
MIC (Escherichia coli [8]): 4 µM
MIC (Staphylococcus aureus [9]): 64 µM
MIC (Staphylococcus aureus [10]): 16 µM
MIC (Staphylococcus aureus [11]): 32 µM
MIC (Staphylococcus aureus [12]): 16 µM
Activity (Escherichia coli [13]): 8.49%
Activity (Escherichia coli [14]): 3.47%
Activity (Escherichia coli [15]): Active
Activity (Escherichia coli [16]): Active
Activity (Escherichia coli [17]): Active
Activity (DNA): inactive
Ratio (Escherichia coli [18]): 2 - 4
Ratio (Escherichia coli [19]): 2 - 4
Ratio (Escherichia coli [20]): 2 - 4
Ratio (Escherichia coli [21]): 2 - 4
Ratio (Staphylococcus aureus [22]): 2 - 4
Ratio (Staphylococcus aureus [23]): 2 - 4
Ratio (Staphylococcus aureus [24]): 2 - 4
Ratio (Staphylococcus aureus [25]): 2 - 4
inhibition (Staphylococcus aureus [26]): Active
Activity (Escherichia coli [27]): Active
Activity (Escherichia coli [28]): inactive

CCCC(=O)NCC(=O)N[C@@H](CC(C)C)C(=O)N[C@@H](CC(C)C)C(=O)N[C@H](CCCCN)C(=O)N[C@@H](CCCNC(=N)N)C(=O)N[C@H](C(=O)N[C@H](CCCCN)C(=O)N[C@H](C(=O)N[C@@H](CC(C)C)C(=O)N[C@@H](CC(C)C)C(N)=O)[C@@H](C)O)[C@@H](C)CC
MIC (Escherichia coli [1]; ATCC 25922, 18 h): > 128 µM
MIC (Escherichia coli [2]; ATCC 43837, 18 h): > 128 µM
MIC (Klebsiella pneumoniae; [29]): > 128 µM
MIC (Pseudomonas aeruginosa; ATCC 27853, 18 h): 128 µM (≈ 157 µg/mL)
MIC (Staphylococcus aureus [3]): > 128 µM
MIC (Staphylococcus aureus [4]): > 128 µM
MIC (Bacillus subtilis): 128 µM (≈ 157 µg/mL)

CN[C@H](CC(C)C)C(=O)N[C@H]1C(=O)N[C@@H](CC(N)=O)C(=O)N[C@H]2C(=O)N[C@H]3C(=O)N[C@H](C(=O)N[C@H](C(=O)O)c4cc(O)cc(O)c4-c4cc3ccc4O)[C@H](O)c3ccc(c(Cl)c3)Oc3cc2cc(c3O[C@@H]2O[C@H](CO)[C@@H](O)[C@H](O)[C@H]2O[C@H]2C[C@](C)(N)[C@H](O)[C@H](C)O2)Oc2ccc(cc2Cl)[C@H]1O [VANCOMYCIN]
MIC (Escherichia coli [1]): inactive
MIC (Escherichia coli [2]): inactive
MIC (Klebsiella pneumoniae): inactive
MIC (Pseudomonas aeruginosa): inactive
MIC (Staphylococcus aureus [3]): < 1 µM
MIC (Staphylococcus aureus [4]): < 1 µM
MIC (Bacillus subtilis): < 1 µM
